In paper PMC2812684 (Biochimica et biophysica acta, 2009):
Read-outs that look alike come from different tables or passages of the source.

Columns and labels:
Assay type in all cases: cell-based
[1] = target: T1, succinate dehydrogenase (complex II) (Rattus norvegicus, UniProt Q920L2); assay: Inhibition of respiration by 3-nitropropionic acid in whole; details: endogenous substrates
[2] = target: T1, succinate dehydrogenase (complex II); details: for IC50: IC50 Complex II
[3] = target: T2, cytochrome bc1 oxidoreductase (complex III) (Rattus norvegicus, UniProt P00159); assay: Inhibition of respiration by antimycin A in whole; details: endogenous substrates
[4] = target: T2, cytochrome bc1 oxidoreductase (complex III); details: for decrease of IC50 with exogenous vs endogenous substrates: excess exogenous glutamate, malate, succinate

T1 sequence (Q920L2 whole entry, looked up, one chain of several): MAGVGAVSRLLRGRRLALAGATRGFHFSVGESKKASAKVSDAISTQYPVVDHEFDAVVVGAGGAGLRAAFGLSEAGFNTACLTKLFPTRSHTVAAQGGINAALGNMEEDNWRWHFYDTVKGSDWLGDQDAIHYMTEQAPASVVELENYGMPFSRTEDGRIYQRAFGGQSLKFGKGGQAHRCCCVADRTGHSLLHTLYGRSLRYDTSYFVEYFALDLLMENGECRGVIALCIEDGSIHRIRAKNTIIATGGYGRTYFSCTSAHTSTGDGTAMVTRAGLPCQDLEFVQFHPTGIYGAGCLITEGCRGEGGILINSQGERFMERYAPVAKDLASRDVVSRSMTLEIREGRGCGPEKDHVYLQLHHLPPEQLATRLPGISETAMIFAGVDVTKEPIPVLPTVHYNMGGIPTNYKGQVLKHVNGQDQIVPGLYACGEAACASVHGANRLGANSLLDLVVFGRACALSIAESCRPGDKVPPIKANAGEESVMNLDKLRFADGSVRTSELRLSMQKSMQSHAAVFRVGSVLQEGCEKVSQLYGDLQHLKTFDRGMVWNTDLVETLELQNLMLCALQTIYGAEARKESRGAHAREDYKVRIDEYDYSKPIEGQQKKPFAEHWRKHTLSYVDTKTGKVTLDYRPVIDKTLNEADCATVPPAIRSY

O=C(O)CC[N+](=O)[O-] [3-NP, 3-nitropropionic acid]
percent of initial rate remaining at flux point ([1]; 8 mM 3-NP, neurons from middle-age rats): 39% | increase of IC50 with age ([1]; old vs middle-age neurons, insignificant): 49% | IC50 ([2]; MA): 6.1 mM | IC50 ([2]; Old): 2.1 mM | increase of IC50 with exogenous vs endogenous substrates ([2]; neurons from middle-age rats, complex I inhibited, excess exogenous succinate): 7% | decrease of IC50 with exogenous vs endogenous substrates ([2]; neurons from old rats, complex I inhibited, excess exogenous succinate): 75% | decrease of IC50 with age ([2]; old vs middle-age permeabilized neurons, exogenous substrates, insignificant): 66%

CCCCCC[C@H]1C(=O)O[C@H](C)[C@H](NC(=O)c2cccc(NC=O)c2O)C(=O)O[C@@H](C)[C@@H]1OC(=O)CC(C)C [antimycin A]
IC50 ([3]; IC50 Complex III, Old, neurons from old (24 month) rats): 0.00016 mM | decrease of IC50 with age ([3]; old vs middle-age neurons, p=0.006): 35% | decrease of IC50 with exogenous vs endogenous substrates ([4]; neurons from middle-age rats): 46% | decrease of IC50 with exogenous vs endogenous substrates ([4]; neurons from old rats): 68% | decrease of IC50 with age ([4]; old vs middle-age permeabilized neurons, exogenous substrates, p=0.0001): 60%
